Measured values published in patent US12723063B2, “GIPR-agonist compounds” (Eli Lilly and Company, priority 2019, dated 2026).
*1 amine or outer side, *2 acyl side, *3 side chain or, on linkers, in order; H or OH if unused. Where a SMILES comes first, the peptide text is derived from it. Side-chain parts run from the residue outwards. [ ]: non-standard residue; d: D form. The star is where a group is joined. C20 diacid = O=C(O)CCCCCCCCCCCCCCCCCCC(=O)*; αMePhe(2-F) = C[C@](N)(Cc1ccccc1F)C(=O)O; γGlu = O=C(O)[C@H](CCC(=O)[*:2])N[*:1]; 4Pal = N[C@@H](Cc1ccncc1)C(=O)O; αMeL = CC(C)C[C@](C)(N)C(=O)O; Orn = NCCC[C@H](N)C(=O)O; AEEA = NCCOCCOCC(=O)O; Aib = CC(C)(N)C(=O)O

Experiments:
human GcgR = molecular target: T1, human GcgR (Homo sapiens, UniProt P47871); assay: [125I]-Glucagon binding, SPA with WGA beads, 0.1% bacitracin; details: geometric mean, read-out: hGcgR Ki
T1 construct: expressed in transfected cells; crude membranes
T1 sequence (P47871 26-477): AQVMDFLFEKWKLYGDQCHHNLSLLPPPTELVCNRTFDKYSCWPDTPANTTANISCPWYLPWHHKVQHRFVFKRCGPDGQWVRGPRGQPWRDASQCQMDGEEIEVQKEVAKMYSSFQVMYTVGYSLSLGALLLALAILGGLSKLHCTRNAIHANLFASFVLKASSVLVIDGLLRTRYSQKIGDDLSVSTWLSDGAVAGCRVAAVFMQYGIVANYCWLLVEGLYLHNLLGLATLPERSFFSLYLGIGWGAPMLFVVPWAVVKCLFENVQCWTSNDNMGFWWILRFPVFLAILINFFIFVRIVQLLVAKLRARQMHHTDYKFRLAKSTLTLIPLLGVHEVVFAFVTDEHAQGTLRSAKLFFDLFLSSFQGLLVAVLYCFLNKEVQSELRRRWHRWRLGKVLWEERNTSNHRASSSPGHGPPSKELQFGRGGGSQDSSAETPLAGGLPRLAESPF
In short: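 SPA competition binding with WGA beads on crude membranes from HEK293 cells stably expressing hGcgR. Buffer: 25 mM HEPES pH 7.4, 2.5 mM CaCl2, 1 mM MgCl2, 0.1% bacitracin, 0.003% Tween-20; 10-point 3-fold dilutions, NSB with 1 μM Gcg.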

[1] = molecular target: T2, human glucagon receptor (GcgR) (Homo sapiens, UniProt P47871); assay: cAMP functional assay (HTRF) in HEK293 cells in presence of 0.1% casein; assay type: cell-based; details: HEK293 cells expressing human GcgR, geometric mean, read-out: hGcgR cAMP Rel EC50 nM (SEM, n)
T2 construct: expressed in transfected cells; host or cells: HEK293
T2 sequence (P47871 26-477): as above

[2] = molecular target: T3, human GLP-1 receptor (GLP-1R) (Homo sapiens, UniProt P43220); assay: as above; assay type: cell-based; details: HEK293 cells expressing human GLP-1R, geometric mean, read-out: hGLP1R cAMP Rel EC50 nM (SEM, n)
T3 construct: expressed in transfected cells; host or cells: HEK293
T3 sequence (P43220 24-463): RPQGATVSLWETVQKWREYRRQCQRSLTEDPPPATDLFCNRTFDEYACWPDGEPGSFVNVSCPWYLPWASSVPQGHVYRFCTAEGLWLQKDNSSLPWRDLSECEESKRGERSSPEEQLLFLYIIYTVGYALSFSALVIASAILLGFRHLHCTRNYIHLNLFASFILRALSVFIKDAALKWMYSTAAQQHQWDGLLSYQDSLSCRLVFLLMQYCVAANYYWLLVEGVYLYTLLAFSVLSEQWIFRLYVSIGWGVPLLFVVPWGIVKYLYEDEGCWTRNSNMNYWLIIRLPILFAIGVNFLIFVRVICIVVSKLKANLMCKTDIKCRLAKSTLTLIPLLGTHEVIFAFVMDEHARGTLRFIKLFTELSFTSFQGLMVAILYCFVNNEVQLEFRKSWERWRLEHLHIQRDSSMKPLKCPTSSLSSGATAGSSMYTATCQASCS

| Compound | Ki (human GcgR) [nM] | EC50 [1] [nM] | EC50 [2] [nM] |
| --- | --- | --- | --- |
| CC[C@H](C)[C@H](NC(=O)[C@H](CCCN)NC(=O)[C@H](CC(=O)O)NC(=O)[C@H](CC(C)C)NC(=O)[C@](C)(CC(C)C)NC(=O)[C@@H](NC(=O)[C@H](CO)NC(=O)[C@H](Cc1ccc(O)cc1)NC(=O)[C@H](CC(=O)O)NC(=O)[C@H](CO)NC(=O)[C@@H](NC(=O)[C@H](Cc1ccccc1)NC(=O)[C@@H](NC(=O)CNC(=O)[C@H](CCC(=O)O)NC(=O)C(C)(C)NC(=O)[C@@H](N)Cc1ccc(O)cc1)[C@@H](C)O)[C@@H](C)CC)[C@@H](C)CC)C(=O)N[C@@H](CCCNC(=N)N)C(=O)N[C@@H](CCC(N)=O)C(=O)NC(C)(C)C(=O)N[C@@H](CC(=O)O)C(=O)N[C@@H](Cc1ccccc1)C(=O)N[C@H](C(=O)N[C@@H](CCC(=O)O)C(=O)N[C@@H](Cc1ccc(O)cc1)C(=O)N[C@@H](CCCCNC(=O)COCCOCCNC(=O)COCCOCCNC(=O)CC[C@H](NC(=O)CCCCCCCCCCCCCCCCCCC(=O)O)C(=O)O)C(=O)N[C@@H](CC(C)C)C(=O)N[C@@H](CCC(=O)O)C(=O)NCC(=O)NCC(=O)N1CCC[C@H]1C(=O)N[C@@H](CO)C(=O)N[C@@H](CO)C(=O)NCC(=O)N[C@@H](C)C(=O)N1CCC[C@H]1C(=O)N1CCC[C@H]1C(=O)N1CCC[C@H]1C(=O)N[C@@H](CO)C(N)=O)C(C)C [Example 116] (H-Y[Aib]EGTFISDYSI[αMeL]LD[Orn]IRQ[Aib]DFVEYK([AEEA-AEEA-γGlu-C20 diacid])LEGGPSSGAPPPS-NH2) | 178 | > 5000 | > 5000 |
| CC[C@H](C)[C@H](NC(=O)[C@H](CO)NC(=O)[C@H](Cc1ccc(O)cc1)NC(=O)[C@H](CC(=O)O)NC(=O)[C@H](CO)NC(=O)[C@@H](NC(=O)[C@](C)(Cc1ccccc1F)NC(=O)[C@@H](NC(=O)CNC(=O)[C@H](CCC(=O)O)NC(=O)C(C)(C)NC(=O)[C@@H](N)Cc1ccc(O)cc1)[C@@H](C)O)[C@@H](C)CC)C(=O)N[C@@H](C)C(=O)N[C@@H](CC(C)C)C(=O)N[C@@H](CC(=O)O)C(=O)N[C@@H](CCCCN)C(=O)N[C@H](C(=O)N[C@@H](Cc1c[nH]cn1)C(=O)N[C@@H](CCC(N)=O)C(=O)NC(C)(C)C(=O)N[C@@H](CC(=O)O)C(=O)N[C@@H](Cc1ccccc1)C(=O)N[C@H](C(=O)N[C@@H](CCC(=O)O)C(=O)N[C@@H](Cc1ccncc1)C(=O)N[C@@H](CCCCNC(=O)COCCOCCNC(=O)COCCOCCNC(=O)CC[C@H](NC(=O)CCCCCCCCCCCCCCCCCCC(=O)O)C(=O)O)C(=O)N[C@@H](CC(C)C)C(=O)N[C@@H](CCC(=O)O)C(=O)NCC(=O)NCC(=O)N1CCC[C@H]1C(=O)N[C@@H](CO)C(=O)N[C@@H](CO)C(=O)NCC(=O)N[C@@H](C)C(=O)N1CCC[C@H]1C(=O)N1CCC[C@H]1C(=O)N1CCC[C@H]1C(=O)N[C@@H](CO)C(N)=O)C(C)C)[C@@H](C)CC [Example 112] (H-Y[Aib]EGT[αMePhe(2-F)]ISDYSIALDKIHQ[Aib]DFVE[4Pal]K([AEEA-AEEA-γGlu-C20 diacid])LEGGPSSGAPPPS-NH2) | 257 | > 5000 | > 5000 |
| CC[C@H](C)[C@H](NC(=O)[C@H](CO)NC(=O)[C@H](Cc1ccc(O)cc1)NC(=O)[C@H](CC(=O)O)NC(=O)[C@H](CO)NC(=O)[C@@H](NC(=O)[C@](C)(Cc1ccccc1F)NC(=O)[C@@H](NC(=O)CNC(=O)[C@H](CCC(=O)O)NC(=O)C(C)(C)NC(=O)[C@@H](N)Cc1ccc(O)cc1)[C@@H](C)O)[C@@H](C)CC)C(=O)N[C@@H](C)C(=O)N[C@@H](CC(C)C)C(=O)N[C@@H](CC(=O)O)C(=O)N[C@@H](CCCCN)C(=O)N[C@H](C(=O)N[C@@H](Cc1c[nH]cn1)C(=O)N[C@@H](CCC(N)=O)C(=O)NC(C)(C)C(=O)N[C@@H](CCC(=O)O)C(=O)N[C@@H](Cc1ccccc1)C(=O)N[C@H](C(=O)N[C@@H](CC(N)=O)C(=O)N[C@@H](Cc1ccc(O)cc1)C(=O)N[C@@H](CCCCNC(=O)COCCOCCNC(=O)COCCOCCNC(=O)CC[C@H](NC(=O)CCCCCCCCCCCCCCCCCCC(=O)O)C(=O)O)C(=O)N[C@@H](CC(C)C)C(=O)N[C@@H](CCC(=O)O)C(=O)NCC(=O)NCC(=O)N1CCC[C@H]1C(=O)N[C@@H](CO)C(=O)N[C@@H](CO)C(=O)NCC(=O)N[C@@H](C)C(=O)N1CCC[C@H]1C(=O)N1CCC[C@H]1C(=O)N1CCC[C@H]1C(=O)N[C@@H](CO)C(N)=O)C(C)C)[C@@H](C)CC [Example 95] (H-Y[Aib]EGT[αMePhe(2-F)]ISDYSIALDKIHQ[Aib]EFVNYK([AEEA-AEEA-γGlu-C20 diacid])LEGGPSSGAPPPS-NH2) | 85 | > 5000 | > 5000 |
